Publication PMC9415015, “CK2 Inhibition and Antitumor Activity of 4,7-Dihydro-6-nitroazolo[1,5-a]pyrimidines” (Molecules, 2022)
Read-outs that look alike come from different tables or passages of the source.

Key:
[1] = test system: Hos cells; test: MTT test, osteosarcoma cells; format: cell-based, human; settings: for Cytotoxicity index IC50 ± SE, Hos: MTT, 72 h incubation; for Selectivity ratio SR (HOS): normal/cancer cell (Hek-293 vs Hos)
Description: (§1) The studies were carried out on cultured cells of human glioblastoma (A-172, ATCC CRL 1620), human osteosarcoma (Hos, ATCC CRL 1543), human embryonic rhabdomyosarcoma (Rd, ATCC CRL 136), and human embryonic kidney 293 cells (Hek-293, ATCC CRL 1573) obtained from the Shared research facility “Vertebrate cell culture collection” (Institute of Cytology RAS, Saint-Petersburg, Russia). The cells were cultured using DMEM / F-12 medium containing 10% fetal bovine serum at 37°C, 5% CO2, and 98% humidity. Subculturing was performed using 0.25% trypsin solution when the culture reached ≥90% confluency.
(§2) The compounds were dissolved in DMSO. The solutions were diluted with DMEM/F-12 culture medium with 10% fetal bovine serum to the studied concentrations: 8, 16, 32, 64, 128, 256, 512, and 1024 µM. […] Cisplatin (cPt) was used as a positive control.
(§3) Cells were seeded in 96-well plates at a concentration of 4 × 10^3 cells per well. After 24 h, test compounds were added to the wells in a given concentration range. Then the cells were incubated for 72 h, after which a solution of MTT (3-(4,5-dimethyl-2-thiazolyl)-2,5-diphenyl-2H-tetrazolium bromide) was added to the cultures at 20 µL (5 mg/mL) to the well. After 2.5 h, the medium was removed from the wells and 200 µL of a mixture of DMSO/i-PrOH 1/1 was added. Optical density was measured on a plate spectrophotometer at a wavelength of 570 nm.
(§4) Statistical data processing was carried out in the RStudio program (Version 1.4.1106 © […] RStudio, PBC, Boston, MA, USA) using the R package (version 4.1.2). The cytotoxicity index (IC50) was calculated by plotting dose–response curves using the “drc” package.

[2] = test system: A-172 cells; test: MTT test, glioblastoma cells; format: cell-based, human; settings: for Cytotoxicity index IC50 ± SE, A-172: MTT, 72 h incubation; for Selectivity ratio SR (A-172): normal/cancer cell (Hek-293 vs A-172)
Description: as §1, §2, §3, §4

[3] = target: T1, human recombinant CK2α1 (Homo sapiens, UniProt P68400); test: CK2 ADP-Glo kinase assay; format: biochemical; settings: for Effect on CK2 activity in initial screening (in words): initial screening at 50 μM; for inhibition at 50 µM: read-out: CK2 Inhibition at 50 μM, m ± SD (%)
T1 construct: purchased Promega V4482
Description: Kinase activity was determined using the enzyme system CK2α1 (Promega V4482, Madison, WI, USA) and the ADP-Glo^TM kit (Promega V9101, Madison, WI, USA) in white 96-well plates (Nunc U96 Microwell 267350, Denmark). The reaction was carried out using 50 ng/well of N-GST labeled human recombinant CK2α1, 0.1 µg/µL bovine casein as a substrate, 10 μM ATP in 40 mM Tris buffer solution (pH 7.50) containing 20 mM MgCl2, 0.1 mg/mL of BSA, and 50 μM of DTT. Test compounds were added to 1.25% DMSO (final concentration 0.25%) and preincubated with kinase for 10 min. The reaction was carried out for 60 min at 25 °C in a thermostatically controlled PST-60HL shaker (Biosan. […], Latvia). ATP-dependent luminescence was measured at an integration time of 1000 ms using the Infinite M200 PRO microplate reader (Tecan. Austria). The ATP-competitive inhibitor Staurosporin (CAS 62996–74-1, Alfa Aesar J62837, 99+%) was used as a positive control. The experiments were performed in two parallels.

[4] = test system: Rd cells; test: MTT test, embryonic rhabdomyosarcoma cells; format: cell-based, human; settings: for Cytotoxicity index IC50 ± SE, Rd: MTT, 72 h incubation; for Selectivity ratio SR (RD): normal/cancer cell (Hek-293 vs Rd)
Description: as §1, §2, §3, §4

[5] = test system: Hek-293 cells; test: MTT test, human embryonic kidney cells; format: cell-based; settings: 72 h incubation
Description: as §1, §2, §3, §4

[6] = dose-response study of CK2 inhibition
[7] = 50 μM compound, 10 μM ATP, n.a. = not active
[8] = dose-response study, 10 μM ATP, read-out: CK2 IC50

T1 sequence (P68400 whole entry): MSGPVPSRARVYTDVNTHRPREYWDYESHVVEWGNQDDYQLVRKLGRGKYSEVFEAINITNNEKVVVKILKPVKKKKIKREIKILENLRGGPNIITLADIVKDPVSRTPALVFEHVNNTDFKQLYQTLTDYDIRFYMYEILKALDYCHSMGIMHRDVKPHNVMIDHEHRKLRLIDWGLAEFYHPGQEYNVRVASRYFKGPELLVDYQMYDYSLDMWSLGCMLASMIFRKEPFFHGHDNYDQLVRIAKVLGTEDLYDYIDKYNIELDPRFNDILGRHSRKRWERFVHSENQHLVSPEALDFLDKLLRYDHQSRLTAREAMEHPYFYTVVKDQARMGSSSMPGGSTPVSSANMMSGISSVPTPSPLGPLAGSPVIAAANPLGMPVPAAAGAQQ

| Effect on CK2 activity in initial screening (in words) [3] | IC50 [3, 8] [µM] | Compound | Cytotoxicity index IC50 ± SE, Hos [1] [µM] | Selectivity ratio SR (HOS) [1] | Cytotoxicity index IC50 ± SE, A-172 [2] [µM] | Selectivity ratio SR (A-172) [2] | Cytotoxicity index IC50 ± SE, Rd [4] [µM] | Selectivity ratio SR (RD) [4] | Cytotoxicity index IC50 ± SE, Hek-293 [5] [µM] | IC50 [3] [µM] | CK2 inhibitory potency in dose-response study (in words) ([3]; dose-response study) | Hill Coefficient [3, 6] | inhibition at 50 µM [3] [%] | inhibition at 50 µM [3, 7] [%] | Hill Coefficient [3] |
| --- | --- | --- | --- | --- | --- | --- | --- | --- | --- | --- | --- | --- | --- | --- | --- |
| paradoxically enhance CK2 activity | – | 3-Cyano-2-methylthio-6-nitro-7-(4ʹ-nitrophenyl)-4,7-dihydropyrazolo[1,5-a]pyrimidine [Compound 5o] | 28.09 ± 3.91 | 6 | 22.49 ± 2.93 | 7.5 | 36.33 ± 3.40 | 4.7 | – | – | – | – | – | – | – |
| – | – | CC1=C([N+](=O)[O-])C(c2cccs2)n2nccc2N1 (stereo not drawn) [Compound 5d, 6-Nitro-5-methyl-7-(thiophen-2ʹ-yl)-4,7-dihydropyrazolo[1,5-a]pyrimidine] | 103.53 ± 18.27 | – | 28.91 ± 4.58 | – | 105.54 ± 16.81 | – | 543.74 ± 70.79 | – | – | – | – | – | – |
| – | – | CCOC(=O)c1cnn2c1NC(CC)=C([N+](=O)[O-])C2c1ccccc1 (stereo not drawn) [Compound 5e, 3-Etoxycarbonyl-5-ethyl-6-nitro-7-phenyl-4,7-dihydropyrazolo[1,5-a]pyrimidine] | 126.60 ± 7.17 | – | 256.72 ± 12.20 | – | 99.46 ± 4.43 | – | 222.84 ± 6.33 | – | – | – | – | – | – |
| paradoxically enhance CK2 activity | – | N#Cc1cnn2c1NC=C([N+](=O)[O-])C2c1ccccc1 (stereo not drawn) [Compound 5g, 3-Cyano-6-nitro-7-phenyl-4,7-dihydropyrazolo[1,5-a]pyrimidine] | 181.14 ± 7.47 | – | 171.74 ± 8.63 | – | 149.72 ± 11.01 | – | 483.09 ± 37.61 | – | – | – | – | – | – |
| Moderate inhibition | 52.3 | CCC1=C([N+](=O)[O-])C(c2cccs2)n2ncc(C#N)c2N1 (stereo not drawn) [Compound 5k, 3-Cyano-5-ethyl-6-nitro-7-(thiophen-2-yl)-4,7-dihydropyrazolo[1,5-a]pyrimidine] | 77.32 ± 3.06 | – | 110.23 ± 2.97 | – | 89.43 ± 10.46 | – | 107.57 ± 11.10 | – | micromolar CK2 inhibitors | −1.183 | – | 66.8 ± 7.97 | – |
| Moderate inhibition | 57.2 | CSc1nn2c(c1C#N)NC=C([N+](=O)[O-])C2c1ccccc1 (stereo not drawn) [Compound 5l, 3-Cyano-2-methylthio-6-nitro-7-phenyl-4,7-dihydropyrazolo[1,5-a]pyrimidine] | 92.91 ± 3.91 | – | 77.79 ± 4.02 | – | 124.66 ± 6.80 | – | 162.30 ± 9.95 | – | micromolar CK2 inhibitors | −2.947 | – | 48.4 ± 4.48 | – |
| paradoxically enhance CK2 activity | – | CSc1nn2c(c1C#N)NC(C)=C([N+](=O)[O-])C2c1ccccc1 (stereo not drawn) [Compound 5m, 3-Cyano-5-methyl-2-methylthio-6-nitro-7-phenyl-4,7-dihydropyrazolo[1,5-a]pyrimidine] | 18.54 ± 1.79 | 11.4 | 13.36 ± 0.98 | 15.8 | 27.52 ± 2.77 | 7.7 | – | – | – | – | – | – | – |
| – | – | CCC1=C([N+](=O)[O-])C(c2ccc([N+](=O)[O-])cc2)n2nc(SC)c(C#N)c2N1 (stereo not drawn) [Compound 5n, 5-Ehtyl-3-cyano-2-methylthio-6-nitro-7-(4ʹ-nitrophenyl)-4,7-dihydropyrazolo[1,5-a]pyrimidine] | 112.26 ± 8.19 | – | 119.75 ± 8.49 | – | 151.44 ± 7.28 | – | 78.70 ± 9.75 | – | – | – | – | 19.8 ± 24.5 | – |
| – | – | CSc1nc2n(n1)C(c1ccccc1)C([N+](=O)[O-])=C(C)N2 (stereo not drawn) [Compound 6b, 5-Methyl-2-methylthio-6-nitro-7-phenyl-4,7-dihydro-1,2,4-triazolo[1,5-a]pyrimidine] | 92.03 ± 3.08 | – | 71.03 ± 2.07 | – | 110.11 ± 4.93 | – | 237.40 ± 11.99 | – | – | – | – | – | – |
| – | – | CN[C@@H]1C[C@H]2O[C@@](C)([C@@H]1OC)n1c3ccccc3c3c4c(c5c6ccccc6n2c5c31)C(=O)NC4 [Staurosporine, reference compound] | – | – | – | – | – | – | – | – | – | – | 72.3 ± 6.39 | – | −0.974 |
| – | – | N.N.[Cl][Pt][Cl] [cPt, Cisplatin, reference compound] | 2.36 ± 0.12 | 1.9 | 3.64 ± 0.21 | 1.2 | 4.99 ± 0.31 | 0.9 | 4.41 ± 0.24 | – | – | – | – | – | – |

| Compound | Effect on CK2 activity in initial screening (in words) [3] | IC50 [3, 8] [µM] | Cytotoxicity index IC50 ± SE, Hos [1] [µM] | Selectivity ratio SR (HOS) [1] | Cytotoxicity index IC50 ± SE, A-172 [2] [µM] | Selectivity ratio SR (A-172) [2] | Cytotoxicity index IC50 ± SE, Rd [4] [µM] | Selectivity ratio SR (RD) [4] | Cytotoxicity index IC50 ± SE, Hek-293 [5] [µM] | IC50 [3] [µM] | CK2 inhibitory potency in dose-response study (in words) ([3]; dose-response study) | Hill Coefficient [3, 6] | inhibition at 50 µM [3] [%] | inhibition at 50 µM [3, 7] [%] | Hill Coefficient [3] |
| --- | --- | --- | --- | --- | --- | --- | --- | --- | --- | --- | --- | --- | --- | --- | --- |
| 5-Methyl-2-methylthio-6-nitro-7-(4ʹ-nitrophenyl)-4,7-dihydro-1,2,4-triazolo[1,5-a]pyrimidine [Compound 6c] | paradoxically enhance CK2 activity | – | 40.88 ± 4.11 | 5.6 | 41.27 ± 4.10 | 5.5 | 71.15 ± 6.84 | 3.2 | – | – | – | – | – | – | – |
| CCOC(=O)c1cnn2c1NC(CC)=C([N+](=O)[O-])C2c1ccc([N+](=O)[O-])cc1 (stereo not drawn) [Compound 5f, 3-Etoxycarbonyl-5-ethyl-6-nitro-7-(4ʹ-nitrophenyl)-4,7-dihydropyrazolo[1,5-a]pyrimidine] | Moderate inhibition | – | 170.14 ± 11.16 | – | 212.36 ± 42.85 | – | 121.97 ± 13.53 | – | 35.86 ± 4.30 | 52.8 | micromolar CK2 inhibitors | −1.369 | 53.81 ± 0.42 | – | – |
| CCC1=C([N+](=O)[O-])C(c2ccc([N+](=O)[O-])cc2)n2ncc(C#N)c2N1 (stereo not drawn) [Compound 5h, 3-Cyano-5-ehtyl-6-Nitro-7-(4ʹ-nitrophenyl)-4,7-dihydropyrazolo[1,5-a]pyrimidine] | Moderate inhibition | – | 234.97 ± 25.80 | – | 323.41 ± 22.70 | – | 378.59 ± 20.39 | – | 153.47 ± 12.35 | 59.5 | micromolar CK2 inhibitors | −1.566 | 54.8 ± 0.87 | – | – |
| CCC1=C([N+](=O)[O-])C(c2ccc([N+](=O)[O-])cc2)n2nc(C(F)(F)F)nc2N1 (stereo not drawn) [Compound 6e] | Moderate inhibition | > 100 | 93.72 ± 5.89 | – | 82.44 ± 2.22 | – | 192.69 ± 10.27 | – | 54.16 ± 5.32 | – | low potency | – | – | 39.8 ± 19.5 | – |
